row,SMILES,logP
1,Nc1ccccc1Oc1ccccc1,2.46
2,O=C(O)Cc1ccc(C(F)(F)F)cc1,2.45
3,CSc1ccc(C(=O)O)cc1,2.74
4,Cc1cccc(N(C)C)c1,2.8
5,CSc1ccccc1N,1.2
6,CC(=O)Oc1cccc(C)c1,2.09
7,Cc1ccccc1C=O,2.26
8,O=C(O)c1ccc(Oc2ccccc2)cc1,3.21
9,Nc1ccc(Oc2ccccc2)cc1,2.36
10,CSc1cccc(N)c1,1.45
11,CS(=O)(=O)c1ccc(N)cc1,-0.12
12,CS(=O)(=O)c1ccc(C(=O)O)cc1,0.67
13,N#Cc1ccccc1O,1.59
14,COc1ccccc1Oc1ccccc1,2.92
15,Oc1cccc(-c2ccccc2)c1,3.23
16,CC(=O)Nc1cccc(O)c1,0.73
17,O=Cc1ccc(OCC(=O)O)cc1,0.79
18,CC(=O)Nc1ccccc1O,0.72
19,CSc1ccc(O)cc1,1.78
20,COc1ccccc1N(C)C,1.63
21,CC(=O)Oc1ccc(C)cc1,2.11
22,CC(=O)Nc1ccccc1C(=O)O,1.73
23,COc1ccc(N(C)C)cc1,1.42
